# Publication PMC5078040 (Oncotarget, 2016)
# Assays:
# ANKK1 = target: T1, ANKK1 (Homo sapiens, UniProt Q8NFD2); assay: KinomeScan; assay type: binding; conditions: 1uM
# T1 construct: purchased DiscoveRx KINOMEscan
# CAMK1D = target: T2, CAMK1D (Homo sapiens, UniProt Q8IU85); assay: KinomeScan; assay type: binding; conditions: 1uM
# T2 construct: purchased DiscoveRx KINOMEscan
# CDC2L1 = target: T3, CDC2L1 (Homo sapiens, UniProt P21127); assay: KinomeScan; assay type: binding; conditions: 1uM
# T3 construct: purchased DiscoveRx KINOMEscan
# CDK11 = target: T4, CDK11 (Homo sapiens, UniProt Q9BWU1); assay: KinomeScan; assay type: binding; conditions: 1uM
# T4 construct: purchased DiscoveRx KINOMEscan
# T4 sequence (Q9BWU1 whole entry): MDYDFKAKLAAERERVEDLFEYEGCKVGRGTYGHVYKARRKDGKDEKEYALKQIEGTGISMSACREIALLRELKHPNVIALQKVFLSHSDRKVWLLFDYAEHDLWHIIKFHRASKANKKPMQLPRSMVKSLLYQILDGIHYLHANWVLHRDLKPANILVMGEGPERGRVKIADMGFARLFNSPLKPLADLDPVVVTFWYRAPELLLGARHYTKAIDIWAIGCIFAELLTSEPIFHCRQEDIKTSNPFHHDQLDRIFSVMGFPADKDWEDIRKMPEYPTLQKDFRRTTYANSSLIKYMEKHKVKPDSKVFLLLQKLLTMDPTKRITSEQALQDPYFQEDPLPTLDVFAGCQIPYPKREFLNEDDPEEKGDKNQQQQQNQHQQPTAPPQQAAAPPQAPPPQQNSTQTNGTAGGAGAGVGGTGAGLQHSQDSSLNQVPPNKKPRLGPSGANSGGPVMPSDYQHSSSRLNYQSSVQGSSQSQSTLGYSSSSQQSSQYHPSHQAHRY
# CSF1R-autoinhibited = target: T5, CSF1R-autoinhibited (Homo sapiens, UniProt P07333); assay: KinomeScan; assay type: binding; conditions: 1uM
# T5 construct: purchased DiscoveRx KINOMEscan
# CSNK1G1 = target: T6, CSNK1G1 (Homo sapiens, UniProt Q9HCP0); assay: KinomeScan; assay type: binding; conditions: 1uM
# T6 construct: purchased DiscoveRx KINOMEscan
# DCAMKL1 = target: T7, DCAMKL1 (Homo sapiens, UniProt O15075); assay: KinomeScan; assay type: binding; conditions: 1uM
# T7 construct: purchased DiscoveRx KINOMEscan
# DDR1 = target: T8, DDR1 (Homo sapiens, UniProt Q08345); assay: KinomeScan; assay type: binding; conditions: 1uM
# T8 construct: purchased DiscoveRx KINOMEscan
# DYRK1A = target: T9, DYRK1A (Homo sapiens, UniProt Q13627); assay: KinomeScan; assay type: binding; conditions: 1uM
# T9 construct: purchased DiscoveRx KINOMEscan
# EGFR(L747-T751del,Sins) = assay: KinomeScan; assay type: binding; conditions: 1uM
# EGFR(L858R) = target: T10, EGFR(L858R) (Homo sapiens, UniProt P00533, L858R); assay: KinomeScan; assay type: binding; conditions: 1uM
# T10 construct: purchased DiscoveRx KINOMEscan
# EGFR(T790M) = target: T11, EGFR(T790M) (Homo sapiens, UniProt P00533, T790M); assay: KinomeScan; assay type: binding; conditions: 1uM
# T11 construct: purchased DiscoveRx KINOMEscan
# EPHB1 = target: T12, EPHB1 (Homo sapiens, UniProt P54762); assay: KinomeScan; assay type: binding; conditions: 1uM
# T12 construct: purchased DiscoveRx KINOMEscan
# FLT1 = target: T13, FLT1 (Homo sapiens, UniProt P17948); assay: KinomeScan; assay type: binding; conditions: 1uM
# T13 construct: purchased DiscoveRx KINOMEscan
# GSK3A = target: T14, GSK3A (Homo sapiens, UniProt P49840); assay: KinomeScan; assay type: binding; conditions: 1uM
# T14 construct: purchased DiscoveRx KINOMEscan
# JNK3 = target: T15, JNK3 (Homo sapiens, UniProt P53779); assay: KinomeScan; assay type: binding; conditions: 1uM
# T15 construct: purchased DiscoveRx KINOMEscan
# LATS1 = target: T16, LATS1 (Homo sapiens, UniProt O95835); assay: KinomeScan; assay type: binding; conditions: 1uM
# T16 construct: purchased DiscoveRx KINOMEscan
# LRRK2(G2019S) = target: T17, LRRK2(G2019S) (Homo sapiens, UniProt Q5S007, G2019S); assay: KinomeScan; assay type: binding; conditions: 1uM
# T17 construct: purchased DiscoveRx KINOMEscan
# LYN = target: T18, LYN (Homo sapiens, UniProt P07948); assay: KinomeScan; assay type: binding; conditions: 1uM
# T18 construct: purchased DiscoveRx KINOMEscan
# MAPKAPK5 = target: T19, MAPKAPK5 (Homo sapiens, UniProt Q8IW41); assay: KinomeScan; assay type: binding; conditions: 1uM
# T19 construct: purchased DiscoveRx KINOMEscan
# MST1 = target: T20, MST1 (Homo sapiens, UniProt Q13043); assay: KinomeScan; assay type: binding; conditions: 1uM
# T20 construct: purchased DiscoveRx KINOMEscan
# T20 sequence (Q13043 whole entry): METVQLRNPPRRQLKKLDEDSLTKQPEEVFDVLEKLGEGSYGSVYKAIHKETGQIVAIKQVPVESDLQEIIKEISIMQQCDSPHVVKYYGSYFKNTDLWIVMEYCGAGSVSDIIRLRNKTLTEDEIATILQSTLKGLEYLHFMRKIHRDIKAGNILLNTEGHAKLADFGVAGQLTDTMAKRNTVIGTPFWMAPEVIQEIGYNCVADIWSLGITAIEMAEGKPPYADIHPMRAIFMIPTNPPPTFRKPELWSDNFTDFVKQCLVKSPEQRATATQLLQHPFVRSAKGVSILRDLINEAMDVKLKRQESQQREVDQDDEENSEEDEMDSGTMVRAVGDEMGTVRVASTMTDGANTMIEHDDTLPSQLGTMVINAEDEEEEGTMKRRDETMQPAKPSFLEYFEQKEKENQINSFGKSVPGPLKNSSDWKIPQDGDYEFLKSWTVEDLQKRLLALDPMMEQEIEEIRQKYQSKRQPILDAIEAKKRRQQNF
# MYLK2 = target: T21, MYLK2 (Homo sapiens, UniProt Q9H1R3); assay: KinomeScan; assay type: binding; conditions: 1uM
# T21 construct: purchased DiscoveRx KINOMEscan
# T21 sequence (Q9H1R3 whole entry): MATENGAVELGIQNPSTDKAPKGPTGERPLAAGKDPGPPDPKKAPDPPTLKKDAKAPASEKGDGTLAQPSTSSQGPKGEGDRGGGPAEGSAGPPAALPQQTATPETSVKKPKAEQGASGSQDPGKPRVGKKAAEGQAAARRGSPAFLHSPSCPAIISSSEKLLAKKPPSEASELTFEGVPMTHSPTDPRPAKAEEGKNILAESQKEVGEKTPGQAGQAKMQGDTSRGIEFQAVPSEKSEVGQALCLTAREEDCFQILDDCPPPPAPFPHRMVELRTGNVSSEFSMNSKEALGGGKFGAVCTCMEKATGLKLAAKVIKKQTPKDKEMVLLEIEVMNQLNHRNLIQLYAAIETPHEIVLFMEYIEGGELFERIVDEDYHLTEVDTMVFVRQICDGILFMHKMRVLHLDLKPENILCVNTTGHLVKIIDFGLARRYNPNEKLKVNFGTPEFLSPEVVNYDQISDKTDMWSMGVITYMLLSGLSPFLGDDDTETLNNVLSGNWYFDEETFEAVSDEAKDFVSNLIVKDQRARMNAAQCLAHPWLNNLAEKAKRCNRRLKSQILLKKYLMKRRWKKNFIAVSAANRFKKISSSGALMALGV
# NEK3 = target: T22, NEK3 (Homo sapiens, UniProt P51956); assay: KinomeScan; assay type: binding; conditions: 1uM
# T22 construct: purchased DiscoveRx KINOMEscan
# T22 sequence (P51956 whole entry): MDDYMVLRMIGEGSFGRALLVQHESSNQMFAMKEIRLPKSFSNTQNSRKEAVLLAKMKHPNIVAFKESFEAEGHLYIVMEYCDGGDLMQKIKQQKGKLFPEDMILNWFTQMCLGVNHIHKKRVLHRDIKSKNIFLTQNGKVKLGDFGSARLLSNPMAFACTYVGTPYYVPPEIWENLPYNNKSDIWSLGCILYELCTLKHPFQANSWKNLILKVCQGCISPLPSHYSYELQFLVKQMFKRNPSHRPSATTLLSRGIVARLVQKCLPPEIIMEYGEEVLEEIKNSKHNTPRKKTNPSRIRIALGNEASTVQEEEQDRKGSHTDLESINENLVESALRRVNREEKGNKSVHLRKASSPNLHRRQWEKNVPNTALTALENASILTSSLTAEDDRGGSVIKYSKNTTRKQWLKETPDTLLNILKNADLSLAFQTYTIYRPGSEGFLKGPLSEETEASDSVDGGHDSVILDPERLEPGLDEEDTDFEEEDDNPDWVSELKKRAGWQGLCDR
# NEK6 = target: T23, NEK6 (Homo sapiens, UniProt Q9HC98); assay: KinomeScan; assay type: binding; conditions: 1uM
# T23 construct: purchased DiscoveRx KINOMEscan
# T23 sequence (Q9HC98 whole entry): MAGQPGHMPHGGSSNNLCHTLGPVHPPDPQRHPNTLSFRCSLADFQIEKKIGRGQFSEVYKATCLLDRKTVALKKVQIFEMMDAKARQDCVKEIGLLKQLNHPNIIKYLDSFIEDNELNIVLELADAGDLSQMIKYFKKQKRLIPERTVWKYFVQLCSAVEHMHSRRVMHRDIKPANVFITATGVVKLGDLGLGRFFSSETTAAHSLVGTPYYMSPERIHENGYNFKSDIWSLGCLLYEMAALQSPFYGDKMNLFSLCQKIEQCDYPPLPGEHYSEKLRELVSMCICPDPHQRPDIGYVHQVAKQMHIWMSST
# PIK3CA(H1047Y) = target: T24, PIK3CA(H1047Y) (Homo sapiens, UniProt P42336, H1047Y); assay: KinomeScan; assay type: binding; conditions: 1uM
# T24 construct: purchased DiscoveRx KINOMEscan
# PIK4CB = target: T25, PIK4CB (Homo sapiens, UniProt Q9UBF8); assay: KinomeScan; assay type: binding; conditions: 1uM
# T25 construct: purchased DiscoveRx KINOMEscan
# T25 sequence (Q9UBF8 whole entry): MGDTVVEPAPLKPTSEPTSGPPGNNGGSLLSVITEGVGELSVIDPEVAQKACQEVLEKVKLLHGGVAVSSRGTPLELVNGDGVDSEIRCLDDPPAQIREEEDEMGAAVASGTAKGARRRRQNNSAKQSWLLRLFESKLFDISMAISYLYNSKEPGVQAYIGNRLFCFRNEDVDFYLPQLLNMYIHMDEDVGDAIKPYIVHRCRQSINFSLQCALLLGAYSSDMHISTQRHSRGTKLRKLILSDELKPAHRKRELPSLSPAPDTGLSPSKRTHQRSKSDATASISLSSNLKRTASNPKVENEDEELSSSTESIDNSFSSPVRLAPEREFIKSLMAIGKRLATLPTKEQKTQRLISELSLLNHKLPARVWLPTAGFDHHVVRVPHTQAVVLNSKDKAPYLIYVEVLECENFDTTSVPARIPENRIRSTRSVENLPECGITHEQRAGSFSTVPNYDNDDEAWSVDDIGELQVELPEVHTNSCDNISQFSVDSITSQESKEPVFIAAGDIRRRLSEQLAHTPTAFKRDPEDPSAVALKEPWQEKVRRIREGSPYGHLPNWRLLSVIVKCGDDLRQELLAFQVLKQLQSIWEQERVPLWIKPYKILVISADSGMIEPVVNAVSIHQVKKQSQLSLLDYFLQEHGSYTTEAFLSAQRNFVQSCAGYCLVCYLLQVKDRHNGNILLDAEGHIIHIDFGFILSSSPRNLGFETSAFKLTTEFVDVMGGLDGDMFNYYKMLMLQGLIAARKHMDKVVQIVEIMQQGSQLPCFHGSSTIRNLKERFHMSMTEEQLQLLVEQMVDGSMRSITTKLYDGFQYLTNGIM
# PIP5K1A = target: T26, PIP5K1A (Homo sapiens, UniProt Q99755); assay: KinomeScan; assay type: binding; conditions: 1uM
# T26 construct: purchased DiscoveRx KINOMEscan
# PIP5K2B = target: T27, PIP5K2B (Homo sapiens, UniProt P78356); assay: KinomeScan; assay type: binding; conditions: 1uM
# T27 construct: purchased DiscoveRx KINOMEscan
# PLK1 = target: T28, PLK1 (Homo sapiens, UniProt P53350); assay: KinomeScan; assay type: binding; conditions: 1uM
# T28 construct: purchased DiscoveRx KINOMEscan
# PRKD2 = target: T29, PRKD2 (Homo sapiens, UniProt Q9BZL6); assay: KinomeScan; assay type: binding; conditions: 1uM
# T29 construct: purchased DiscoveRx KINOMEscan
# PRKR = target: T30, PRKR (Homo sapiens, UniProt P19525); assay: KinomeScan; assay type: binding; conditions: 1uM
# T30 construct: purchased DiscoveRx KINOMEscan
# RET = target: T31, RET (Homo sapiens, UniProt P07949); assay: KinomeScan; assay type: binding; conditions: 1uM
# T31 construct: purchased DiscoveRx KINOMEscan
# T31 sequence (P07949 29-1114): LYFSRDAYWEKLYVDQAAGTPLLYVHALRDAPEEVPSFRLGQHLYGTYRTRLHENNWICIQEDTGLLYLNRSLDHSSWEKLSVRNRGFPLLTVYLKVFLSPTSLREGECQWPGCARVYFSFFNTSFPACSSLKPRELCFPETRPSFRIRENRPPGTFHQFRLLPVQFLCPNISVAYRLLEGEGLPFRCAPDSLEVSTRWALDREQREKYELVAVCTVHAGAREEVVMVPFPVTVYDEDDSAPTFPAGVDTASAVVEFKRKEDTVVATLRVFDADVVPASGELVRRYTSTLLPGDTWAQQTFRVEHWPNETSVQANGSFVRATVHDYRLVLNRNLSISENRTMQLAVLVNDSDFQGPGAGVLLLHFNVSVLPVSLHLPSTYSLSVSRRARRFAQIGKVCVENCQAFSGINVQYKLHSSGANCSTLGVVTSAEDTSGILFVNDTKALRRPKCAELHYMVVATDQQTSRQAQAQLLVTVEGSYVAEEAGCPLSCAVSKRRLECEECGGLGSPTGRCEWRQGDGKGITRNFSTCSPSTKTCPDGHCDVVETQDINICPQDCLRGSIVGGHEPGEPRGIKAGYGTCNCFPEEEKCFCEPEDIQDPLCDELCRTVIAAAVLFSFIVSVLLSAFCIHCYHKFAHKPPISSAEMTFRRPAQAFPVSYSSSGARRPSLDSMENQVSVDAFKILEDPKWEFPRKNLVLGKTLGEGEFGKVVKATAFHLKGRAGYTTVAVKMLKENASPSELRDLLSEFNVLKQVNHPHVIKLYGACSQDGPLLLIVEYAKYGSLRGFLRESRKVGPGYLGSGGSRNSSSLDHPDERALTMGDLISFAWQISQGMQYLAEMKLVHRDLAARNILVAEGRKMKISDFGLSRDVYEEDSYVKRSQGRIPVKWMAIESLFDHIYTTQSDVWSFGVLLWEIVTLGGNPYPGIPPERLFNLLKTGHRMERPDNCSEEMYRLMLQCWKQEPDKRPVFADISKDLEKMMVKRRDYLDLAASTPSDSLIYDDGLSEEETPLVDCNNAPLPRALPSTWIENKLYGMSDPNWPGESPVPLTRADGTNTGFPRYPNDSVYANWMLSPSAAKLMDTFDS
# RET(M918T) = target: T32, RET(M918T) (Homo sapiens, UniProt P07949, M918T); assay: KinomeScan; assay type: binding; conditions: 1uM
# T32 construct: purchased DiscoveRx KINOMEscan
# T32 sequence (P07949 29-1114 M918T): as the sequence (P07949 29-1114) above, with M890T counted along it
# RIPK2 = target: T33, RIPK2 (Homo sapiens, UniProt O43353); assay: KinomeScan; assay type: binding; conditions: 1uM
# T33 construct: purchased DiscoveRx KINOMEscan
# RIPK5 = target: T34, RIPK5 (Homo sapiens, UniProt Q6XUX3); assay: KinomeScan; assay type: binding; conditions: 1uM
# T34 construct: purchased DiscoveRx KINOMEscan
# [1] = target: T35, RPS6KA4(Kin.Dom.1-N-terminal) (Homo sapiens, UniProt O75676); assay: KinomeScan; assay type: binding; conditions: 1uM
# T35 construct: RPS6KA4(Kin.Dom.1-N-terminal); purchased DiscoveRx KINOMEscan
# [2] = target: T36, RSK1(Kin.Dom.2-C-terminal) (Homo sapiens, UniProt Q15418); assay: KinomeScan; assay type: binding; conditions: 1uM
# T36 construct: RSK1(Kin.Dom.2-C-terminal); purchased DiscoveRx KINOMEscan
# TNK1 = target: T37, TNK1 (Homo sapiens, UniProt Q13470); assay: KinomeScan; assay type: binding; conditions: 1uM
# T37 construct: purchased DiscoveRx KINOMEscan
# TRPM6 = target: T38, TRPM6 (Homo sapiens, UniProt Q9BX84); assay: KinomeScan; assay type: binding; conditions: 1uM
# T38 construct: purchased DiscoveRx KINOMEscan
# [3] = target: T39, TYK2(JH2domain-pseudokinase) (Homo sapiens, UniProt P29597); assay: KinomeScan; assay type: binding; conditions: 1uM
# T39 construct: TYK2(JH2domain-pseudokinase); purchased DiscoveRx KINOMEscan
# ZAK = target: T40, ZAK (Homo sapiens, UniProt Q9NYL2); assay: KinomeScan; assay type: binding; conditions: 1uM
# T40 construct: purchased DiscoveRx KINOMEscan
# PARP cleavage = assay: Apoptosis (western-blot); assay type: cell-based, human; conditions: within 12 hours
# Description: Then, apoptosis of MOLM13, HT, MEC-1 cells were detected by western-blot using PARP, GAPDH antibody (CST).
# T2 sequence (Q8IU85 whole entry): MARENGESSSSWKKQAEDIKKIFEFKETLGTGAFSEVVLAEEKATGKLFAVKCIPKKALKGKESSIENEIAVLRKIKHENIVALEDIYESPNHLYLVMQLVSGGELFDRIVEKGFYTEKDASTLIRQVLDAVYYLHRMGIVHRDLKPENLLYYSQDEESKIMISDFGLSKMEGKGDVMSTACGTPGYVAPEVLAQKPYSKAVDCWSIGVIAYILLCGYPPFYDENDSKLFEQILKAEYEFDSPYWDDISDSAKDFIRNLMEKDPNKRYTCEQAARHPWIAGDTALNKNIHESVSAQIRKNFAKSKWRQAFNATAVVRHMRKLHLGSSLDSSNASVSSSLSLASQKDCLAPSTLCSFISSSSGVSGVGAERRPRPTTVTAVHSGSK
smiles,measurement,setting,value
Cc1nc(NC(=O)[C@@H](N)C(C)C)sc1-c1cnc(Cl)c(NS(=O)(=O)c2ccccc2)c1 [PI3KD-IN-015],KinomeScan ANKK1,ANKK1,100
same,KinomeScan CAMK1D,CAMK1D,94
same,KinomeScan CDC2L1,CDC2L1,100
same,KinomeScan CDK11,CDK11,100
same,KinomeScan CSF1R-autoinhibited,CSF1R-autoinhibited,100
same,KinomeScan CSNK1G1,CSNK1G1,100
same,KinomeScan DCAMKL1,DCAMKL1,61
same,KinomeScan DDR1,DDR1,100
same,KinomeScan DYRK1A,DYRK1A,89
same,"KinomeScan EGFR(L747-T751del,Sins)","EGFR(L747-T751del,Sins)",100
same,KinomeScan EGFR(L858R),EGFR(L858R),100
same,KinomeScan EGFR(T790M),EGFR(T790M),70
same,KinomeScan EPHB1,EPHB1,100
same,KinomeScan FLT1,FLT1,89
same,KinomeScan GSK3A,GSK3A,95
same,KinomeScan JNK3,JNK3,100
same,KinomeScan LATS1,LATS1,98
same,KinomeScan LRRK2(G2019S),LRRK2(G2019S),100
same,KinomeScan LYN,LYN,100
same,KinomeScan MAPKAPK5,MAPKAPK5,82
same,KinomeScan MST1,MST1,83
same,KinomeScan MYLK2,MYLK2,84
same,KinomeScan NEK3,NEK3,100
same,KinomeScan NEK6,NEK6,100
same,KinomeScan PIK3CA(H1047Y),PIK3CA(H1047Y),4.4
same,KinomeScan PIK4CB,PIK4CB,0.8
same,KinomeScan PIP5K1A,PIP5K1A,84
same,KinomeScan PIP5K2B,PIP5K2B,100
same,KinomeScan PLK1,PLK1,90
same,KinomeScan PRKD2,PRKD2,94
same,KinomeScan PRKR,PRKR,100
same,KinomeScan RET,RET,100
same,KinomeScan RET(M918T),RET(M918T),95
same,KinomeScan RIPK2,RIPK2,98
same,KinomeScan RIPK5,RIPK5,83
same,KinomeScan RPS6KA4(Kin.Dom.1-N-terminal),[1],86
same,KinomeScan RSK1(Kin.Dom.2-C-terminal),[2],96
same,KinomeScan TNK1,TNK1,100
same,KinomeScan TRPM6,TRPM6,100
same,KinomeScan TYK2(JH2domain-pseudokinase),[3],100
same,KinomeScan ZAK,ZAK,100
same,PARP cleavage (apoptosis),PARP cleavage; MEC-1 cell (CLL),only weakly
same,PARP cleavage (apoptosis),"PARP cleavage; MOLM-13 cell (AML), HT cell (B-NHL)",apparent PARP cleavage
